15 compounds from PMC8815882, “Screening the pandemic response box identified benzimidazole carbamates, Olorofim and ravuconazole as promising drug candidates for the treatment of eumycetoma” (PLoS Neglected Tropical Diseases, 2022) can be followed below.

Where two headings read alike, the source gives them in different places. Peptide text beside a SMILES is read from it.

In the assay the test system is M. mycetomatis genome strain MM55. The assay can be described thus: CLSI M38-A2 based in vitro susceptibility screening (XTT or resazurin), growth at fixed concentration. Type of assay: cell-based, Madurella mycetomatis. As to conditions: for activity at 25 µM / activity at 100 µM / Percent fungal survival at 100 µM: Madurella mycetomatis; for Percent fungal survival at 100 µM: read-out: Percentage survival at 100um, 100 uM A (second replicate column).

Where [1] appears, read: 25 uM, mean of three replicates, read-out: Percentage survival at 25um, 25 uM mean.
The mark [2] stands for this setting: 25 uM, replicate A, read-out: Percentage survival at 25um, 25 um A.
Where [3] appears, read: 25 uM, replicate B, read-out: Percentage survival at 25um, 25 uM B.
The mark [4] stands for this setting: 25 uM, replicate C, read-out: Percentage survival at 25um, 25 uM C.
Where [5] appears, read: 100 uM, first replicate column, read-out: Percentage survival at 100um, 100 uM A.
Where [6] appears, read: 100 uM, mean of three replicates, read-out: Percentage survival at 100um, 100 uM mean.
[7] abbreviates: 100 uM, second replicate column, read-out: Percentage survival at 100um, 100 uM A.
Setting [8] is: 100 uM, third replicate column, read-out: Percentage survival at 100um, 100 uM A.
Where [9] appears, read: 25 uM, mean, read-out: Percentage survival at 25um, 25 uM mean.
[10] abbreviates: 100 uM, mean, read-out: Percentage survival at 100um, 100 uM mean.
Setting [11] is: 100 uM, replicate (first column), read-out: Percentage survival at 100um, 100 uM A.
Where [12] appears, read: 100 uM, replicate (second column), read-out: Percentage survival at 100um, 100 uM A.
The mark [13] stands for this setting: 100 uM, replicate (third column), read-out: Percentage survival at 100um, 100 uM A.
The mark [14] stands for this setting: 25 uM, mean of replicates, read-out: Percentage survival at 25um, 25 uM mean.
[15] abbreviates: 100 uM, mean of replicates, read-out: Percentage survival at 100um, 100 uM mean.
Setting [16] is: 100 uM, replicate 1, read-out: Percentage survival at 100um, 100 uM A.
Setting [17] is: 100 uM, replicate 2, read-out: Percentage survival at 100um, 100 uM A.
The mark [18] stands for this setting: 100 uM, replicate 3, read-out: Percentage survival at 100um, 100 uM A.
Where [19] appears, read: 25 uM, mean of three, M. mycetomatis MM55, read-out: Percentage survival at 25um, 25 uM mean.
The mark [20] stands for this setting: 25 uM, replicate A, M. mycetomatis MM55, read-out: Percentage survival at 25um, 25 um A.
[21] abbreviates: 25 uM, replicate B, M. mycetomatis MM55, read-out: Percentage survival at 25um, 25 uM B.
Setting [22] is: 25 uM, replicate C, M. mycetomatis MM55, read-out: Percentage survival at 25um, 25 uM C.
Setting [23] is: 100 uM, mean of three, M. mycetomatis MM55, read-out: Percentage survival at 100um, 100 uM mean.
[24] abbreviates: 100 uM, replicate 1, M. mycetomatis MM55, read-out: Percentage survival at 100um, 100 uM A (first replicate column).
The mark [25] stands for this setting: 100 uM, replicate 2, M. mycetomatis MM55.
Where [26] appears, read: 100 uM, replicate 3, M. mycetomatis MM55, read-out: Percentage survival at 100um, 100 uM A (third replicate column).

Regarding `CC[N+]1(C/C2=C/CCCCCC2)CCC(NC(=O)C2c3cc(Cl)ccc3Oc3ccc(Cl)cc32)CC1` (stereo not drawn) [MMV1580489], the activity at 25 µM under setting [1] was 93.8%, the activity at 25 µM under setting [2] was 90.3%, the activity at 25 µM under setting [3] turned out to be 102% and the activity at 25 µM under setting [4] was determined as 88.6%. The activity at 100 µM under setting [5] is -9.19%, the activity at 100 µM under setting [6] is -2.01%, the activity at 100 µM under setting [7] was -1.42% and the activity at 100 µM under setting [8] worked out at 4.58%.

For the compound `COc1ccc(C2CNC(=O)C2)cc1OC1CCCC1` (stereo not drawn) [MMV003738], the activity at 25 µM runs as follows: under setting [1], 84.1%; under setting [2], 73%; under setting [3], 88.3%; under setting [4], 90.9%. For the same compound, the activity at 100 µM by setting is: under setting [5], 78.1%; under setting [6], 75%; under setting [7], 63%; under setting [8], 84%.

`O=C(N[C@H](Cc1cccc2ccccc12)C(=O)NCCc1c[nH]cn1)C1Cc2ccccc2C1` [MMV1782109]: the activity at 25 µM is, setting by setting: under setting [9], 80.7%; under setting [2], 88.1%; under setting [3], 81.3%; under setting [4], 72.6%. Also, the activity at 100 µM is 67% under setting [10], 69.9% under setting [11], 67.6% under setting [12] and 63.4% under setting [13].

Take `CCc1oc2ccccc2c1C(=O)c1ccc(O)cc1` [MMV1578558]: the activity at 25 µM reads like this: under setting [14], 91.9%; under setting [2], 95.8%; under setting [3], 97%; under setting [4], 82.9%. For the same compound, the activity at 100 µM under setting [15] was determined as 2.03%, the activity at 100 µM under setting [16] is -1.97%, the activity at 100 µM under setting [17] was 6.39% and the activity at 100 µM under setting [18] is 1.66%.

Consider `CCc1cc(O)c(Oc2cccnc2N)cc1F` [MMV1580854], for which the activity at 25 µM was determined as 86.4% under setting [19], 97.5% under setting [20], 88.8% under setting [21] and 72.9% under setting [22]. Moreover, the activity at 100 µM is 101% under setting [23], 78.2% under setting [24] and 132% under setting [26]. Further, the Percent fungal survival at 100 µM under setting [25] worked out at 91.9%.

Take `O=C(Cc1ccccc1F)Nc1nc2ccccc2[nH]1` [MMV1578576]: the activity at 25 µM was determined as 70.6% under setting [14], 73.4% under setting [2], 74.5% under setting [3] and 63.8% under setting [4]. Further, the activity at 100 µM by setting is: under setting [15], 78.7%; under setting [16], 102%; under setting [17], 65.1%; under setting [18], 69.2%.

As for `CC(C)(C)OC(=O)NCc1ccc(C(=O)N[C@H]2CCOC2=O)cc1` [MMV1581547], the activity at 25 µM under setting [19] worked out at 87.5%, the activity at 25 µM under setting [20] was 95.2%, the activity at 25 µM under setting [21] stood at 90.1% and the activity at 25 µM under setting [22] came out at 77.3%. The activity at 100 µM by setting is: under setting [23], 113%; under setting [24], 94.9%; under setting [26], 89.2%. For the same compound, the Percent fungal survival at 100 µM under setting [25] was determined as 156%.

`C[C@@H]1O[C@@H]1P(=O)(O)O` [MMV002354]: the activity at 25 µM runs as follows: under setting [14], 88.5%; under setting [2], 88.5%; under setting [3], 86.5%; under setting [4], 90.5%. The activity at 100 µM is, setting by setting: under setting [15], 88.2%; under setting [16], 81.5%; under setting [17], 93.4%; under setting [18], 89.6%.

For the compound `NC(=O)[C@@H]1CC[C@@H]2CN1C(=O)N2OS(=O)(=O)O` [MMV1613560], the activity at 25 µM is, setting by setting: under setting [19], 88.8%; under setting [20], 94.4%; under setting [21], 88.3%; under setting [22], 83.7%. The activity at 100 µM runs as follows: under setting [23], 85.1%; under setting [24], 93.4%; under setting [26], 94.1%. In addition, under setting [25], the Percent fungal survival at 100 µM was found to be 67.9%.

For `CCCCOC(=O)Nc1cc2nc(C3CCCCC3)[nH]c2cc1N(CC)CC` [MMV1578842], the activity at 25 µM under setting [14] was found to be 88.1%, the activity at 25 µM under setting [2] was determined as 97.2%, the activity at 25 µM under setting [3] turned out to be 93.7% and the activity at 25 µM under setting [4] stood at 73.4%. The activity at 100 µM under setting [15] amounted to 93.8%, the activity at 100 µM under setting [16] is 93.6%, the activity at 100 µM under setting [17] amounted to 90.8% and the activity at 100 µM under setting [18] worked out at 96.9%.

For the compound `CC(C)(C)c1ccc(C(=O)NC(=O)N2CCCc3ccccc32)cc1` [MMV1782212], the activity at 25 µM came out at 78.4% under setting [9], 90.3% under setting [2], 74.4% under setting [3] and 70.6% under setting [4]. In addition, the activity at 100 µM runs as follows: under setting [10], 81.3%; under setting [11], 68.7%; under setting [12], 79.3%; under setting [13], 95.8%.

With `CC(N)C(=O)NC(CCCCN)C(=O)NC(CCCNC(=N)N)C(=O)NC(Cc1c[nH]cn1)C(=O)NC(Cc1c[nH]cn1)C(=O)NCC(=O)NC(Cc1ccc(O)cc1)C(=O)NC(CCCCN)C(=O)NC(CCCNC(=N)N)C(=O)NC(CCCCN)C(=O)NC(Cc1ccccc1)C(=O)NC(Cc1c[nH]cn1)C(N)=O` (stereo not drawn) [MMV1579849] (H-AKRHHGYKRKFH-NH2; configuration not given here), the “Percentage survival at 25um, 25 uM mean” value (25 uM, mean of three, M. mycetomatis MM55) is given as 88.4824%. Besides, where the note is “25 uM, replicate A, M. mycetomatis MM55”, the “Percentage survival at 25um, 25 um A” value was 86.8656%. Moreover, the “Percentage survival at 25um, 25 uM B” value (25 uM, replicate B, M. mycetomatis MM55) worked out at 93.5744%. In addition, the “Percentage survival at 25um, 25 uM C” value (25 uM, replicate C, M. mycetomatis MM55) was 85.0073%. The “Percentage survival at 100um, 100 uM mean” value (100 uM, mean of three, M. mycetomatis MM55) was determined as 95.7644%. Further, under “100 uM, replicate 1, M. mycetomatis MM55”, the “Percentage survival at 100um, 100 uM A (first replicate column)” value worked out at 92.1348%. The “Percentage survival at 100um, 100 uM A (second replicate column)” value under setting [25] turned out to be 102.447%. In addition, the “Percentage survival at 100um, 100 uM A (third replicate column)” value (100 uM, replicate 3, M. mycetomatis MM55) turned out to be 92.7112%.

In the case of `O=C(Nc1ncc(Cc2cccc3ccccc23)s1)C1CCCCC1` [MMV1593532], the activity at 25 µM under setting [14] turned out to be 92.1%, the activity at 25 µM under setting [2] is 93.7%, the activity at 25 µM under setting [3] turned out to be 94.5% and the activity at 25 µM under setting [4] was 88%. Also, the activity at 100 µM was 93.9% under setting [15], 107% under setting [16], 89% under setting [17] and 85.1% under setting [18].

Take `N[C@H]1CCC[C@H]1C(=O)O` [MMV1634361]: the activity at 25 µM (25 uM, mean of replicates, MM55, read-out: Percentage survival at 25um, 25 uM mean) is 92.1%; the activity at 25 µM (25 uM, replicate A, MM55, read-out: Percentage survival at 25um, 25 um A) was found to be 98.3%; the activity at 25 µM (25 uM, replicate B, MM55, read-out: Percentage survival at 25um, 25 uM B) was 98.6%; the activity at 25 µM (25 uM, replicate C, MM55, read-out: Percentage survival at 25um, 25 uM C) came to 79.4%. The activity at 100 µM by setting is: (100 uM, mean of replicates, MM55, read-out: Percentage survival at 100um, 100 uM mean) 96.6%; (100 uM, replicate 1, MM55, read-out: Percentage survival at 100um, 100 uM A) 90.9%; (100 uM, replicate 2, MM55, read-out: Percentage survival at 100um, 100 uM A) 120%; (100 uM, replicate 3, MM55, read-out: Percentage survival at 100um, 100 uM A) 79.2%.

Take `Nc1nc(N)c2c(Sc3ccccc3)cccc2n1` [MMV021759]: the activity at 25 µM is 88.1% under setting [14], 63.3% under setting [2], 65.8% under setting [3] and 135% under setting [4]. Also, the activity at 100 µM under setting [15] was 5.59%, the activity at 100 µM under setting [16] is -1.97%, the activity at 100 µM under setting [17] came out at 5.6% and the activity at 100 µM under setting [18] worked out at 13.1%.
